Laboratory results from patent publication US11331327B2, “Antibacterial use of halogenated salicylanilides” (UNION therapeutics A/S, priority 2014, dated 2022).
≈ marks a conversion by molar mass, not a printed value. Read-outs that look alike come from different tables or passages of the source.

Tested on: S. aureus clinical isolates and S. aureus ATCC 29213
Assay: MIC assay according to CLSI criteria, Example 2, S. aureus strains
Type: cell-based, Staphylococcus aureus
Details: Staphylococcus aureus, read-out: MIC
Description: Strains were conserved in Luria Bertani (LB) Broth (S. aureus) or Brain Heart Infusion (BHI) (S. pyogenes) supplemented with glycerol 15% (v/v) at −80° C., and reactivated by isolation on LB (S. aureus) or BHI (S. pyogenes) agar plates. Strains were cultivated in Mueller Hinton (MH) Broth-cation adjusted (S. aureus) or BHI (S. pyogenes). All strains were cultivated aerobically (microaerobically for S. pyogenes strains) at 37° C.
Bacterial cultures were stopped in their exponential growth phase and plates were inoculated with the approximate concentration of 5×10^5 cells per well. Plates were incubated at 37° C. for 18 hours (S. aureus) or 24 hours (S. pyogenes).

Which results are given for `CC(=O)O[C@H]1C[C@@]2(C)[C@@H](C[C@@H](O)[C@H]3[C@@]4(C)CC[C@@H](O)[C@@H](C)[C@@H]4CC[C@@]32C)/C1=C(\CCC=C(C)C)C(=O)O` [Fusidic acid]?
MIC (ATCC 29213 / MRSA, strain MRSA 15): > 16 µg/mL; MIC (ATCC 29213 / MRSA, strain MRSA 16): 0.25 µg/mL (≈ 0.484 µM); MIC (ATCC 29213 / MRSA, strain MRSA 17): 4 µg/mL (≈ 7.74 µM); MIC (ATCC 29213 / MRSA, strain MRSA 18): 0.25 µg/mL (≈ 0.484 µM); MIC (ATCC 29213 / MRSA, strain MRSA 19): 0.125 µg/mL (≈ 0.242 µM); MIC (ATCC 29213 / MRSA, strain MRSA 20): 0.125 µg/mL (≈ 0.242 µM); MIC (ATCC 29213 / MRSA, strain MRSA 21): 0.125 µg/mL (≈ 0.242 µM); MIC (ATCC 29213 / MRSA, strain MRSA 22): > 16 µg/mL; MIC (ATCC 29213 / MRSA, strain MRSA 23): 0.25 µg/mL (≈ 0.484 µM); MIC (ATCC 29213 / MRSA, strain MRSA 24): 0.25 µg/mL (≈ 0.484 µM); MIC (ATCC 29213 / MRSA, strain MRSA 25): 16 µg/mL (≈ 31 µM); MIC (ATCC 29213 / MRSA, strain MRSA 26): 0.5 µg/mL (≈ 0.968 µM); MIC (ATCC 29213 / MRSA, strain MRSA 27): 0.25 µg/mL (≈ 0.484 µM); MIC (ATCC 29213 / MRSA, strain MRSA 27b): 8 µg/mL (≈ 15.5 µM); MIC (ATCC 29213 / MRSA, strain MRSA 28): 0.06 µg/mL (≈ 0.116 µM); MIC (ATCC 29213 / MRSA, strain MRSA 29): 4 µg/mL (≈ 7.74 µM); MIC (ATCC 29213 / MRSA, strain MRSA 30): 0.125 µg/mL (≈ 0.242 µM); MIC (ATCC 29213 / MRSA, strain MRSA 31): 0.25 µg/mL (≈ 0.484 µM); MIC (ATCC 29213 / MRSA, strain MRSA 32): 0.5 µg/mL (≈ 0.968 µM); MIC (ATCC 29213 / MRSA, strain MRSA 33): 0.5 µg/mL (≈ 0.968 µM); MIC (ATCC 29213 / MRSA, strain MRSA 34): 0.25 µg/mL (≈ 0.484 µM); MIC (ATCC 29213 / MRSA, strain MRSA 35): 16 µg/mL (≈ 31 µM); MIC (ATCC 29213 / MRSA, strain MRSA 36): 8 µg/mL (≈ 15.5 µM); MIC (ATCC 29213 / MRSA, strain MRSA 37): 0.5 µg/mL (≈ 0.968 µM); MIC (ATCC 29213 / MRSA, strain MRSA 38): 8 µg/mL (≈ 15.5 µM); MIC (ATCC 29213 / MRSA, strain MRSA 39): 8 µg/mL (≈ 15.5 µM); MIC (ATCC 29213 / MRSA, strain MRSA 40): 0.125 µg/mL (≈ 0.242 µM); MIC (ATCC 29213 / MRSA, strain MRSA 41): > 16 µg/mL; MIC (ATCC 29213 / MRSA, strain MRSA 42): 0.25 µg/mL (≈ 0.484 µM); MIC (ATCC 29213 / MRSA, strain MRSA 43): 0.125 µg/mL (≈ 0.242 µM); MIC (ATCC 29213 / MRSA, strain MRSA 44): 4 µg/mL (≈ 7.74 µM); MIC (ATCC 29213 / MRSA, strain MRSA 45): 0.06 µg/mL (≈ 0.116 µM); MIC (ATCC 29213 / MRSA, strain MRSA 46): 0.06 µg/mL (≈ 0.116 µM); MIC (ATCC 29213 / MRSA, strain MRSA 47): 0.06 µg/mL (≈ 0.116 µM); MIC (ATCC 29213 / MRSA, strain MRSA 48): 2 µg/mL (≈ 3.87 µM); MIC (ATCC 29213 / MRSA, strain MRSA 49): 0.25 µg/mL (≈ 0.484 µM); MIC (ATCC 29213 / MRSA, strain MRSA 50): 0.03 µg/mL (≈ 0.0581 µM); MIC (ATCC 29213 / MRSA, strain MRSA 51): 0.13 µg/mL (≈ 0.252 µM); MIC (ATCC 29213 / MRSA, strain MRSA 52): 0.06 µg/mL (≈ 0.116 µM); MIC (ATCC 29213 / MRSA, strain MRSA 53): 0.25 µg/mL (≈ 0.484 µM); MIC (ATCC 29213 / MRSA, strain MRSA 54): 0.125 µg/mL (≈ 0.242 µM); MIC (ATCC 29213 / MRSA, strain MRSA 55): 4 µg/mL (≈ 7.74 µM); MIC (ATCC 29213 / MRSA, strain MRSA 56): 0.06 µg/mL (≈ 0.116 µM); MIC (ATCC 29213 / MRSA, strain MRSA 57): 0.125 µg/mL (≈ 0.242 µM); MIC (ATCC 29213 / MRSA, strain MRSA 58): 4 µg/mL (≈ 7.74 µM); MIC (ATCC 29213 / MRSA, strain MRSA 59): 0.06 µg/mL (≈ 0.116 µM); MIC (ATCC 29213 / MRSA, strain MRSA 60): 8 µg/mL (≈ 15.5 µM); MIC (ATCC 29213 / MRSA, strain MRSA 61): 0.06 µg/mL (≈ 0.116 µM); MIC (ATCC 29213 / MRSA, strain MRSA 62): 0.06 µg/mL (≈ 0.116 µM); MIC (ATCC 29213 / MRSA, strain MRSA 63): 0.125 µg/mL (≈ 0.242 µM); MIC (ATCC 29213 / MRSA, strain MRSA 64): 0.25 µg/mL (≈ 0.484 µM); MIC (ATCC 29213 / MRSA, strain MRSA 65): 0.06 µg/mL (≈ 0.116 µM); MIC (ATCC 29213 / MRSA, strain MRSA 66): 0.06 µg/mL (≈ 0.116 µM); MIC (ATCC 29213 / MRSA, strain MRSA 67): 0.25 µg/mL (≈ 0.484 µM); MIC (ATCC 29213 / MRSA, strain MRSA 68): 0.125 µg/mL (≈ 0.242 µM); MIC (ATCC 29213 / MRSA, strain MRSA 69): 4 µg/mL (≈ 7.74 µM); MIC (ATCC 29213 / MRSA, strain MRSA 70): 8 µg/mL (≈ 15.5 µM); MIC (ATCC 29213 / MRSA, strain MRSA 71): 0.06 µg/mL (≈ 0.116 µM); MIC (ATCC 29213 / MRSA, strain MRSA 72): 16 µg/mL (≈ 31 µM); MIC (ATCC 29213 / MRSA, strain MRSA 73): 0.25 µg/mL (≈ 0.484 µM); MIC (ATCC 29213 / MRSA, strain MRSA 74): 0.25 µg/mL (≈ 0.484 µM); MIC (ATCC 29213 / MRSA, strain MRSA 75): 0.5 µg/mL (≈ 0.968 µM); MIC (ATCC 29213 / MRSA, strain MRSA 76): 0.25 µg/mL (≈ 0.484 µM); MIC (ATCC 29213 / MRSA, strain MRSA 77): 16 µg/mL (≈ 31 µM); MIC (ATCC 29213 / MRSA, strain MRSA 78): 0.125 µg/mL (≈ 0.242 µM); MIC (ATCC 29213 / MRSA, strain MRSA 79): 0.5 µg/mL (≈ 0.968 µM); MIC (ATCC 29213 / MRSA, strain MRSA 80): 0.125 µg/mL (≈ 0.242 µM); MIC (ATCC 29213 / MRSA, strain MRSA 81): 0.25 µg/mL (≈ 0.484 µM); MIC (ATCC 29213 / MRSA, strain MRSA 82): 8 µg/mL (≈ 15.5 µM); MIC (ATCC 29213 / MRSA, strain MRSA 83): 0.06 µg/mL (≈ 0.116 µM); MIC (ATCC 29213 / MRSA, strain MRSA 84): 8 µg/mL (≈ 15.5 µM); MIC (ATCC 29213 / MRSA, strain MRSA 85): 4 µg/mL (≈ 7.74 µM); MIC (ATCC 29213 / MRSA, strain MRSA 86): > 16 µg/mL; MIC (ATCC 29213 / MRSA, strain MRSA 87): 0.125 µg/mL (≈ 0.242 µM); MIC (ATCC 29213 / MRSA, strain MRSA 88): 0.06 µg/mL (≈ 0.116 µM); MIC (ATCC 29213 / MRSA, strain MRSA 89): 0.06 µg/mL (≈ 0.116 µM); MIC (ATCC 29213 / MRSA, strain MRSA 90): 16 µg/mL (≈ 31 µM); MIC (ATCC 29213 / MRSA, strain MRSA 91): 0.25 µg/mL (≈ 0.484 µM); MIC (ATCC 29213 / MRSA, strain MRSA 92): 8 µg/mL (≈ 15.5 µM); MIC (ATCC 29213 / MRSA, strain MRSA 93): 0.02 µg/mL (≈ 0.0387 µM); MIC (ATCC 29213 / MRSA, strain MRSA 94): 0.125 µg/mL (≈ 0.242 µM); MIC (ATCC 29213 / MRSA, strain MRSA 95): 8 µg/mL (≈ 15.5 µM); MIC (ATCC 29213 / MRSA, strain MRSA 96): 0.125 µg/mL (≈ 0.242 µM); MIC (ATCC 29213 / MRSA, strain MRSA 97): 8 µg/mL (≈ 15.5 µM); MIC (ATCC 29213 / MRSA, strain MRSA 98): 0.06 µg/mL (≈ 0.116 µM); MIC (ATCC 29213 / MRSA, strain MRSA 99): 0.125 µg/mL (≈ 0.242 µM); MIC (ATCC 29213 / MRSA, strain MRSA 100): 0.125 µg/mL (≈ 0.242 µM); MIC (ATCC 29213 / MRSA, strain MRSA 101): 8 µg/mL (≈ 15.5 µM); MIC (ATCC 29213 / MRSA, strain MRSA 102): 0.06 µg/mL (≈ 0.116 µM); MIC (ATCC 29213 / MRSA, strain MRSA 103): 8 µg/mL (≈ 15.5 µM); MIC (ATCC 29213 / MRSA, strain MRSA 104): 0.25 µg/mL (≈ 0.484 µM); MIC (ATCC 29213 / MRSA, strain MRSA 105): 0.125 µg/mL (≈ 0.242 µM); MIC (ATCC 29213 / MRSA, strain MRSA 106): 0.125 µg/mL (≈ 0.242 µM); MIC (ATCC 29213 / MRSA, strain MRSA 107): 0.25 µg/mL (≈ 0.484 µM); MIC (ATCC 29213 / MRSA, strain MRSA 108): 4 µg/mL (≈ 7.74 µM); MIC (ATCC 29213 / MRSA, strain MRSA 109): 0.25 µg/mL (≈ 0.484 µM); MIC (ATCC 29213 / MRSA, strain MRSA 110): 0.06 µg/mL (≈ 0.116 µM); MIC (ATCC 29213 / MRSA, strain MRSA 111): 8 µg/mL (≈ 15.5 µM); MIC (ATCC 29213 / MRSA, strain MRSA 112): 0.06 µg/mL (≈ 0.116 µM); MIC (ATCC 29213 / MRSA, strain MRSA 113): 0.125 µg/mL (≈ 0.242 µM); MIC (ATCC 29213 / MSSA, strain MSSA 01): 4 µg/mL (≈ 7.74 µM); MIC (ATCC 29213 / MSSA, strain MSSA 02): 4 µg/mL (≈ 7.74 µM); MIC (ATCC 29213 / NEWMAN, strain Newman): 0.25 µg/mL (≈ 0.484 µM)
